{"source": "paper PMC4051656", "about": "“Cyanuric Acid Hydrolase from Azorhizobium caulinodans ORS 571: Crystal Structure and Insights into a New Class of Ser-Lys Dyad Proteins” (PLoS ONE, 2014)", "molecular_target": "T1, CAH (cyanuric acid hydrolase from Azorhizobium caulinodans ORS 571) (Azorhizobium caulinodans, UniProt A8IKD2)", "T1 construct": "gene AZC_3892; heterologously expressed and purified; selenomethionine-substituted for the crystal; domains A 1-99, B 108-242, C 249-355; homotetramer", "T1 sequence (A8IKD2 1-356)": "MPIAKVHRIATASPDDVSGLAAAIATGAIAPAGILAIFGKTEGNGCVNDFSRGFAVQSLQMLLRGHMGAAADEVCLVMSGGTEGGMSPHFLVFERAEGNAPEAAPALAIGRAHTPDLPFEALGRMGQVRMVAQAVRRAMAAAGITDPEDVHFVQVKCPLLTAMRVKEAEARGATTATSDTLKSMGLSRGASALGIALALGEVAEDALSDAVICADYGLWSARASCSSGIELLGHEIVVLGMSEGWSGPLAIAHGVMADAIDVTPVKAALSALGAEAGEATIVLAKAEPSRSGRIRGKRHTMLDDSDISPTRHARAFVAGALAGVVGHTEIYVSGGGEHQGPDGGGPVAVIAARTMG", "test": "X-ray crystal structure of complex (SAD, […] Å)", "assay_type": "binding", "conditions": "selenomethionine protein; Tris-HCl pH 7.0-7.5, magnesium sulfate, 20 °C; active site in both subunits; second site on surface of one subunit at lower occupancy"}
{"smiles": "O=C1CC(=O)NC(=O)N1", "note": "[barbituric acid]", "values": [{"measurement": "X-ray crystal structure of complex (SAD, 2.7 Å)", "value": "a molecule of the highly analogous substrate analog, barbituric acid was found"}]}
